{"source": "ChEMBL document CHEMBL4387733", "about": "“Design, synthesis and biological evaluation of indane derived GPR40 agoPAMs” (Bioorg Med Chem Lett, 2019)", "key": {"[1]": {"organism": "Rattus norvegicus", "experiment": "Inhibition of rat P2Y receptor at 10 uM relative to control"}, "[2]": {"target": "MAP/microtubule affinity-regulating kinase 3 (Homo sapiens) (UniProt P27448)", "sequence (P27448 whole entry, looked up)": "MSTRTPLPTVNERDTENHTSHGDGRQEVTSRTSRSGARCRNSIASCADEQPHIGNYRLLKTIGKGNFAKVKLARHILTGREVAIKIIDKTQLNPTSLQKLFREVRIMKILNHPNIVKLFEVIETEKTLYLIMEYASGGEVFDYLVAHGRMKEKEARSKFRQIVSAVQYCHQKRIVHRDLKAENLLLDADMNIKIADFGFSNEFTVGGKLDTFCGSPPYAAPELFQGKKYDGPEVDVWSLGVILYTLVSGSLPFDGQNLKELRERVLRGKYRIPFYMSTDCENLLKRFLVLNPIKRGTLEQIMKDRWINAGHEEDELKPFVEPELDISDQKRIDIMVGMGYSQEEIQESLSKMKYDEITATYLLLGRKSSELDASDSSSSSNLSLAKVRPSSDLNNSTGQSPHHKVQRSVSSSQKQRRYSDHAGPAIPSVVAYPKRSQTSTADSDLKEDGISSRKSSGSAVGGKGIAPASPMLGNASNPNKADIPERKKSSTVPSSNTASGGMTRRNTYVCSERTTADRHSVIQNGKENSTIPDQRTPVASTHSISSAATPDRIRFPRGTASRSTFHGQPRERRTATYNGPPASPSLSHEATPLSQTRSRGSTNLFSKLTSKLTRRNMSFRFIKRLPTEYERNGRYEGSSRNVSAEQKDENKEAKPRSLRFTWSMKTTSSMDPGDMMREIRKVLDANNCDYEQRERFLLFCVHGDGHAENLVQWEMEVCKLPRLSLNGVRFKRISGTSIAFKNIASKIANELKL", "experiment": "Inhibition of human full-length recombinant MARK3 expressed in insect cells at 10 uM using CHKtide as substrate preincubated for 15 mins followed by substrate addition and measured after 30 mins in presence of [gamma32P]ATP by scintillation counting analysis relative to control"}, "[3]": {"target": "Free fatty acid receptor 1 (Homo sapiens, UniProt O14842)", "experiment": "Positive allosteric modulation of recombinant human GPR40 expressed in HEK293 cells assessed as increase in [3H]-myo-inositol phosphate accumulation measured after 60 mins in presence of 100% human serum by microbeta counting method", "type": "functional, cell-based"}, "[4]": {"target": "Acetylcholinesterase (Homo sapiens) (UniProt P22303)", "experiment": "Inhibition of human recombinant full length acetylcholine esterase expressed in HEK293 cells at 10 uM using acetylcholine as substrate preincubated for 15 mins followed by substrate addition measured after 20 mins by spectrophotometric analysis"}, "[5]": {"target": "Cysteinyl leukotriene receptor 2 (Homo sapiens) (UniProt Q9NS75)", "experiment": "Displacement of [3H]LTD4 from human full-length recombinant cysteinyl leukotriene type-2 receptor expressed in HEK293 cells at 10 uM measured after 60 mins by scintillation counting method relative to control", "type": "cell-based"}, "[6]": {"target": "Sodium-dependent serotonin transporter (Homo sapiens) (UniProt P31645)", "experiment": "Inhibition of human SERT at 10 uM relative to control"}, "[7]": {"target": "Sodium-dependent dopamine transporter (Homo sapiens) (UniProt Q01959)", "sequence (Q01959 whole entry)": "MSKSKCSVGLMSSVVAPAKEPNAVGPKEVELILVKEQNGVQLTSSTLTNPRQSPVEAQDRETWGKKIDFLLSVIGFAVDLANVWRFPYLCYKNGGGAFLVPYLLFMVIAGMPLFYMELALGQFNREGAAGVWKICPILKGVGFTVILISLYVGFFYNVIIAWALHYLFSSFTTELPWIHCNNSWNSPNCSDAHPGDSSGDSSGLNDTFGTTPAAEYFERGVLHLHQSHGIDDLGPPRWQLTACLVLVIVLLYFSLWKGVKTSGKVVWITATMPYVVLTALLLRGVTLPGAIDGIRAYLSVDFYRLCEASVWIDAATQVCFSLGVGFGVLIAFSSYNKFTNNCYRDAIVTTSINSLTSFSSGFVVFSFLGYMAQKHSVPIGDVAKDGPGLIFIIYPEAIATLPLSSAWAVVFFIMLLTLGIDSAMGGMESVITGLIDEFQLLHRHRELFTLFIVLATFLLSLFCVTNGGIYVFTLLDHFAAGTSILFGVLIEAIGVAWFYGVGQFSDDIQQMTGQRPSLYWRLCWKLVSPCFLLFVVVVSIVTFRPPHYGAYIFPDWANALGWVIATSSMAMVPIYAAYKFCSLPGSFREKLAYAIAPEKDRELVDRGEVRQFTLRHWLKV", "experiment": "Inhibition of human sodium dependent dopamine transporter at 10 uM relative to control"}, "[8]": {"target": "Sodium-dependent noradrenaline transporter (Homo sapiens) (UniProt P23975)", "experiment": "Inhibition of human sodium dependent noradrenaline transporter at 10 uM relative to control"}, "[9]": {"target": "Prostaglandin G/H synthase 1 (Homo sapiens) (UniProt P23219)", "experiment": "Inhibition of human recombinant cyclooxygenase COX1 expressed in baculovirus infected Sf9 cells at 10 uM using arachidonic acid as substrate preincubated for 15 mins followed by substrate addition and measured after 3 mins by ampliflu red reagent-based spectrofluorimetric method relative to control"}, "[10]": {"target": "Prostaglandin G/H synthase 2 (Homo sapiens) (UniProt P35354)", "experiment": "Inhibition of human recombinant cyclooxygenase COX2 expressed in baculovirus infected Sf9 cells at 10 uM using arachidonic acid as substrate preincubated for 15 mins followed by substrate addition and measured after 3 mins by ampliflu red reagent-based spectrofluorimetric method relative to control"}, "[11]": {"target": "Caspase-8 (Homo sapiens) (UniProt Q14790)", "experiment": "Inhibition of human full-length recombinant caspase 8 expressed in Escherichia coli at 10 uM using Ac-IETD-AMC as substrate preincubated for 15 mins followed by substrate addition and measured after 60 mins by spectrofluorimetric analysis relative to control"}, "[12]": {"target": "Caspase-9 (Homo sapiens) (UniProt P55211)", "sequence (P55211 1-315 limits assumed)": "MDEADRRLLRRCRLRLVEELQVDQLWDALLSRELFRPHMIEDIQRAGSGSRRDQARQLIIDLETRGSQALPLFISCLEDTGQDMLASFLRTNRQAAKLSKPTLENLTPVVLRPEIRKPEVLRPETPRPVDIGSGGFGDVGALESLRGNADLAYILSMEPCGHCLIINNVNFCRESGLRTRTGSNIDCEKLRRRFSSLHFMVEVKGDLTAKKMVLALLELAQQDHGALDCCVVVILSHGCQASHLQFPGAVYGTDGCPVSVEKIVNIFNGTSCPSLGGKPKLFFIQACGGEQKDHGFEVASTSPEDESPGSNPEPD", "sequence (P55211 331-416 limits assumed)": "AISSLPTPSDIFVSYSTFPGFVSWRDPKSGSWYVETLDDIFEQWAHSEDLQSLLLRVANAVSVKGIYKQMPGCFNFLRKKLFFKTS", "experiment": "Inhibition of human full-length recombinant caspase 9 expressed in Escherichia coli at 10 uM using Ac-LEHD-AFC as substrate preincubated for 15 mins followed by substrate addition and measured after 60 mins by spectrofluorimetric analysis relative to control"}, "[13]": {"target": "Cathepsin G (Homo sapiens) (UniProt P08311)", "experiment": "Inhibition of human neutrophil cathepsin G at 10 uM using Suc-Ala-Ala-Pro-Phe-AMC as substrate preincubated for 15 mins followed by substrate addition and measured after 30 mins by spectrofluorimetric analysis relative to control"}, "[14]": {"target": "Mitogen-activated protein kinase 3 (Homo sapiens) (UniProt P27361)", "experiment": "Inhibition of human recombinant full-length ERK1 expressed in Escherichia coli at 10 uM using myelin basic protein as substrate preincubated for 30 mins followed by substrate addition and measured after 30 mins in the presence of [gamma32P]ATP by scintillation counting method relative to control"}, "[15]": {"target": "Alpha-2A adrenergic receptor (Homo sapiens) (UniProt P08913)", "sequence (P08913 whole entry)": "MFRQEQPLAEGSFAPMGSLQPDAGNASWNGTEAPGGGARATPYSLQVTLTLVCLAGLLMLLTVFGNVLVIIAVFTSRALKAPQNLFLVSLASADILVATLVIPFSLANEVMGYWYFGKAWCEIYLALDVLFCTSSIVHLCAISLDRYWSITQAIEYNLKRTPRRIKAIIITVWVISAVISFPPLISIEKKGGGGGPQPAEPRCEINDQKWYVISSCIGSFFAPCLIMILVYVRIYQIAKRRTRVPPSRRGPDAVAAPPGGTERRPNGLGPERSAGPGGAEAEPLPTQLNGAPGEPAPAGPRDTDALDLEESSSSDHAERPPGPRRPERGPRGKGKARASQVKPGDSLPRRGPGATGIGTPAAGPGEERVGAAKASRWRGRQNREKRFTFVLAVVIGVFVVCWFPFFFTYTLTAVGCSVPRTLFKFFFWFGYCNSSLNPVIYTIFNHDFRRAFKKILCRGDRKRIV", "experiment": "Inhibition of human adrenergic alpha2A receptor at 10 uM relative to control"}, "[16]": {"target": "Alpha-2C adrenergic receptor (Homo sapiens) (UniProt P18825)", "experiment": "Inhibition of human adrenergic alpha2C receptor at 10 uM relative to control"}, "[17]": {"target": "B1 bradykinin receptor (Homo sapiens) (UniProt P46663)", "experiment": "Displacement of [3H]Kallidin(des-Arg10,Leu9) from human recombinant bradykinin B1 receptor expressed in CHOK1 cells at 10 uM after 60 mins by scintillation counting assay relative to control", "type": "cell-based"}, "[18]": {"target": "D(1A) dopamine receptor (Homo sapiens) (UniProt P21728)", "experiment": "Inhibition of human dopamine D1 receptor at 10 uM relative to control"}, "[19]": {"target": "D(2) dopamine receptor (Homo sapiens) (UniProt P14416)", "sequence (P14416 whole entry)": "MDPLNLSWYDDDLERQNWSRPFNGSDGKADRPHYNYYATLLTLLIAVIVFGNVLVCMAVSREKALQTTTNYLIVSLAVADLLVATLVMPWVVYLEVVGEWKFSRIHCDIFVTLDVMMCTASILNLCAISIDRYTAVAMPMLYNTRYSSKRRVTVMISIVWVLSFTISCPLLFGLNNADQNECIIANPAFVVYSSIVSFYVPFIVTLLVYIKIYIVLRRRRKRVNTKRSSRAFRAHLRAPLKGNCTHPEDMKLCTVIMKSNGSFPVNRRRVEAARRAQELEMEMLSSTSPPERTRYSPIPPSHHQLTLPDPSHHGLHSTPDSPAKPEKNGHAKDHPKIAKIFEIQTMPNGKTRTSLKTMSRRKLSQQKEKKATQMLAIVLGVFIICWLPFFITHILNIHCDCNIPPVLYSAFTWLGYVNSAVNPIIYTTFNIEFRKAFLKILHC", "experiment": "Inhibition of human dopamine D2s receptor at 10 uM relative to control"}, "[20]": {"target": "GABA-A receptor; anion channel (Rattus norvegicus) (UniProt O09028+P15431+P18506+P18508+P19969+P20236+P23574+P23576+P28471+P28473+P30191+P62813+P63079+P63138+Q91ZM7+Q9ES14)", "experiment": "Inhibition of rat GABAA receptor at 10 uM relative to control", "type": "protein-complex assay"}, "[21]": {"target": "Histamine H1 receptor (Homo sapiens) (UniProt P35367)", "experiment": "Inhibition of human histamine H1 receptor at 10 uM relative to control"}, "[22]": {"target": "Histamine H2 receptor (Homo sapiens) (UniProt P25021)", "sequence (P25021 whole entry)": "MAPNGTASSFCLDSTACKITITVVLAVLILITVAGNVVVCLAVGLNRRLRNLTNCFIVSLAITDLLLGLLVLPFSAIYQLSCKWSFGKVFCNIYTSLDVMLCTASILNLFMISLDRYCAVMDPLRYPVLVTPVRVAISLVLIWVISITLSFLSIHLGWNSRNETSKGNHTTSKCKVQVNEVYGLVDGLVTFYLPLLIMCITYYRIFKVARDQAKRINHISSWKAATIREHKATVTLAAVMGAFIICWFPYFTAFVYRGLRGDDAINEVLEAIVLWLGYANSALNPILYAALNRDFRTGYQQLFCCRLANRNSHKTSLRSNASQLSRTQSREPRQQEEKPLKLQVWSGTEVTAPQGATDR", "experiment": "Inhibition of human histamine H2 receptor at 10 uM relative to control"}, "[23]": {"target": "Muscarinic acetylcholine receptor M3 (Homo sapiens) (UniProt P20309)", "sequence (P20309 whole entry, looked up)": "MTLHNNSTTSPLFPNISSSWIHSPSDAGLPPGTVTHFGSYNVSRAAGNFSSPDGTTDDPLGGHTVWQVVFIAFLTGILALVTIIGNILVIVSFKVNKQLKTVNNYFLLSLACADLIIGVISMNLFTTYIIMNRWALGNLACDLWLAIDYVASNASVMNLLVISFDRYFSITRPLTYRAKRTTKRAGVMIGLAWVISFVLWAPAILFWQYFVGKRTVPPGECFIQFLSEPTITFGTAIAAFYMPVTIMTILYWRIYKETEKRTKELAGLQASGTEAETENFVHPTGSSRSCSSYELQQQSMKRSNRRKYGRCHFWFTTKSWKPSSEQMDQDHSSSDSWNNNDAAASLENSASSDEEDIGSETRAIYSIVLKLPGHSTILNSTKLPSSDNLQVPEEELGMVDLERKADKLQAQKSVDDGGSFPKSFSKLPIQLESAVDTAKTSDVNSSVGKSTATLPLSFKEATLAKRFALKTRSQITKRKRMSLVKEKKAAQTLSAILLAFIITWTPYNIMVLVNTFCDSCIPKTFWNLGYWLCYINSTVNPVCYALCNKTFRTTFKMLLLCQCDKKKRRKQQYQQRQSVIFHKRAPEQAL", "experiment": "Inhibition of human muscarinic M3 receptor at 10 uM relative to control"}, "[24]": {"target": "Kappa-type opioid receptor (Homo sapiens) (UniProt P41145)", "experiment": "Inhibition of human kappa type opioid receptor at 10 uM relative to control"}, "[25]": {"target": "Mu-type opioid receptor (Homo sapiens) (UniProt P35372)", "sequence (P35372 whole entry)": "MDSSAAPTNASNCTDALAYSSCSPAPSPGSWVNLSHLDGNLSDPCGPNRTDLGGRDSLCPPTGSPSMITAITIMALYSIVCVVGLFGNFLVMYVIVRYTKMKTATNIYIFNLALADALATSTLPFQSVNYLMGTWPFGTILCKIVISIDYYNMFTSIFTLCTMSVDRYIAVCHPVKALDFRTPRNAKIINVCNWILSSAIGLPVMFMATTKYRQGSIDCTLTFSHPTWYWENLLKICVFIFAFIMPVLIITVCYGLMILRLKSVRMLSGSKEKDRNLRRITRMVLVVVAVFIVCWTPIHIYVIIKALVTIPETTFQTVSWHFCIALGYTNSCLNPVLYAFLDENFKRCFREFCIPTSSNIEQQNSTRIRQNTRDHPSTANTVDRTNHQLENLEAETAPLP", "experiment": "Inhibition of human mu type opioid receptor at 10 uM relative to control"}, "[26]": {"target": "Prostaglandin E2 receptor EP1 subtype (Homo sapiens) (UniProt P34995)", "sequence (P34995 whole entry)": "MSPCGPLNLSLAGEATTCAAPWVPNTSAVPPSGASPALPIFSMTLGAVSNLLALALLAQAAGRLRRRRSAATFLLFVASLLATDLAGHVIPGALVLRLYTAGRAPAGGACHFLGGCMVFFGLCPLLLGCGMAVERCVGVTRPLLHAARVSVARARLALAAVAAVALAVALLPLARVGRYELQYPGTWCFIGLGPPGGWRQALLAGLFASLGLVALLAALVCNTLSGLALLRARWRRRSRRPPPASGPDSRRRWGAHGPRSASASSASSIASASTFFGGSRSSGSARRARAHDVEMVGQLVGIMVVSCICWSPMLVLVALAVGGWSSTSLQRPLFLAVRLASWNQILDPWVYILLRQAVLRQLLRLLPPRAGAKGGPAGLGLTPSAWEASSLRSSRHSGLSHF", "experiment": "Inhibition of human prostanoid EP1 receptor at 10 uM relative to control"}, "[27]": {"target": "Prostaglandin E2 receptor EP3 subtype (Homo sapiens) (UniProt P43115)", "sequence (P43115 whole entry)": "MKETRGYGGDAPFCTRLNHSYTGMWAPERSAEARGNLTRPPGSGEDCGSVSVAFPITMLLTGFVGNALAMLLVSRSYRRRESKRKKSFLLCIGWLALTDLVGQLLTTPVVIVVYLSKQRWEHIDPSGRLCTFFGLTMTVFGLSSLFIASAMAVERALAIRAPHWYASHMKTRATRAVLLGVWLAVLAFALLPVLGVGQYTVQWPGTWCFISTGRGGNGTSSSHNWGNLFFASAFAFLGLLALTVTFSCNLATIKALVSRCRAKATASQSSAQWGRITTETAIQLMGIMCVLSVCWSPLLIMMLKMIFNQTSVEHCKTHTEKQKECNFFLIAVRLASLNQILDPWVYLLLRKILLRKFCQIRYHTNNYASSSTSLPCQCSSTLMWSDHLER", "experiment": "Inhibition of human prostanoid EP3 receptor at 10 uM relative to control"}, "[28]": {"organism": "Mus musculus", "experiment": "Glucose lowering effect in GPR40 knockout mouse assessed as increase in GLP-1 level", "type": "functional, organism-based"}, "[29]": {"target": "5-hydroxytryptamine receptor 1A (Homo sapiens) (UniProt P08908)", "experiment": "Inhibition of human 5HT1A receptor at 10 uM relative to control"}, "[30]": {"target": "5-hydroxytryptamine receptor 2A (Homo sapiens) (UniProt P28223)", "experiment": "Inhibition of human 5-HT2A receptor at 10 uM relative to control"}, "[31]": {"target": "5-hydroxytryptamine receptor 2B (Homo sapiens) (UniProt P41595)", "experiment": "Inhibition of human 5-HT2B receptor at 10 uM relative to control"}, "[32]": {"target": "5-hydroxytryptamine receptor 2C (Homo sapiens) (UniProt P28335)", "experiment": "Inhibition of human 5-HT2C receptor at 10 uM relative to control"}, "[33]": {"system": "Rattus norvegicus", "experiment": "Hypoglycemic activity in Sprague-Dawley rat assessed as reduction in blood glucose AUC at 0.3 mg/kg, po pretreated for 1 hr followed by glucose challenge by OGTT relative to control", "type": "functional"}, "[34]": {"experiment": "Solubility of the compound in FASSIF", "type": "physicochemical"}, "[35]": {"target": "Histamine H4 receptor (Homo sapiens) (UniProt Q9H3N8)", "experiment": "Inhibition of human histamine H4 receptor at 10 uM relative to control"}}, "note": "Activity calls are given as the source filed them. The calls are words filed in the database; no cut-off is given here."}
{"smiles": "COc1ccc(F)c(-c2ccc(COc3cccc([C@@H](CC(=O)O)C4CC4)c3)cc2C2=CCCC2(C)C)c1", "values": [{"measurement": "inhibition", "setting": "[1]", "result": 80, "unit": "%"}, {"measurement": "inhibition", "setting": "[2]", "result": 81, "unit": "%"}, {"measurement": "fEC50", "setting": "[3]", "result": 0.06, "unit": "nM"}, {"measurement": "inhibition", "setting": "[4]", "result": 52, "unit": "%"}, {"measurement": "inhibition", "setting": "[5]", "result": 61, "unit": "%"}, {"measurement": "inhibition", "setting": "[6]", "result": 70, "unit": "%"}, {"measurement": "inhibition", "setting": "[7]", "result": 97, "unit": "%"}, {"measurement": "inhibition", "setting": "[8]", "result": 95, "unit": "%"}, {"measurement": "inhibition", "setting": "[9]", "result": 67, "unit": "%"}, {"measurement": "inhibition", "setting": "[10]", "result": 77, "unit": "%"}, {"measurement": "inhibition", "setting": "[11]", "result": 65, "unit": "%"}, {"measurement": "inhibition", "setting": "[12]", "result": 89, "unit": "%"}, {"measurement": "inhibition", "setting": "[13]", "result": 53, "unit": "%"}, {"measurement": "inhibition", "setting": "[14]", "result": 96, "unit": "%"}, {"measurement": "inhibition", "setting": "[15]", "result": 99, "unit": "%"}, {"measurement": "inhibition", "setting": "[16]", "result": 99, "unit": "%"}, {"measurement": "inhibition", "setting": "[17]", "result": 63, "unit": "%"}, {"measurement": "inhibition", "setting": "[18]", "result": 78, "unit": "%"}, {"measurement": "inhibition", "setting": "[19]", "result": 66, "unit": "%"}, {"measurement": "inhibition", "setting": "[20]", "result": 60, "unit": "%"}, {"measurement": "inhibition", "setting": "[21]", "result": 97, "unit": "%"}, {"measurement": "inhibition", "setting": "[22]", "result": 66, "unit": "%"}, {"measurement": "inhibition", "setting": "[23]", "result": 60, "unit": "%"}, {"measurement": "inhibition", "setting": "[24]", "result": 97, "unit": "%"}, {"measurement": "inhibition", "setting": "[25]", "result": 99, "unit": "%"}, {"measurement": "inhibition", "setting": "[26]", "result": 95, "unit": "%"}, {"measurement": "inhibition", "setting": "[27]", "result": 77, "unit": "%"}, {"measurement": "Activity", "setting": "[28]", "result": "Active"}, {"measurement": "inhibition", "setting": "[29]", "result": 91, "unit": "%"}, {"measurement": "inhibition", "setting": "[30]", "result": 89, "unit": "%"}, {"measurement": "inhibition", "setting": "[31]", "result": 88, "unit": "%"}, {"measurement": "inhibition", "setting": "[32]", "result": 94, "unit": "%"}, {"measurement": "Activity", "setting": "[33]", "result": "Active"}, {"measurement": "solubility", "setting": "[34]", "result": 166, "unit": "µM"}, {"measurement": "inhibition", "setting": "[35]", "result": 82, "unit": "%"}]}
